Laboratory results: patent US8722662B2, “Heterocyclic compounds” (Takeda Pharmaceutical Company Limited, priority 2010, dated 2014)
Counter-ions that a name gives are not always drawn.

Tests used:
[1] = tested on: SD female rats; test: Measurement of urethral resistance increasing effect (leak point pressure), intravenous administration; format: in vivo; conditions: rat, 0.3 mg/kg and 1.0 mg/kg, 10 min after administration, compared to vehicle (Williams' test)
Method: Experimental Example 4 Measurement of Urethral Resistance Increasing Effect
The urethral resistance increasing effect in rat was measured by a modified method of Matsumoto et al. (WO2009/063992) as follows. That is, SD female rats (CLEA Japan, Inc.) were anesthetized with isoflurane (1.0%; Abbott), and the spinal cord was transected at Th8-9 to avoid the voiding reflex. After laparotomy, an intravesical pressure measurement catheter and a saline infusion catheter (PE-100; Clay Adams) were inserted into the bladder. Thereafter, the abdomen of the rat was closed with aronalpha A “Sankyo” (Daiichi Sankyo). […] The intravesical pressure measurement catheter was connected to a computer via a pressure transducer (REF685640; Nihon Koden), an amplifier (RPM-6008M; Nihon Koden), and a multi-channel data analyzer (MP150; Biopack), and changes in the intravesical pressure were recorded on a hard disc at a frequency of 100 samples/sec. […] The LPP value (Pre value) was measured, a drug was intravenously administered, and the measurement of LPP value (Post value) was again started 10 min after administration. […]
The compound of Example 6 (0.3 mg/kg), the compound of Example 6 (1.0 mg/kg) and the vehicle were administered to the rats, and the urethral resistance increasing effect was measured by the aforementioned method.

[2] = target: T1, human dopamine transporter (Homo sapiens, UniProt Q01959); test: Inhibitory action on human dopamine transporter ([3H]-dopamine uptake in CHO cells); format: cell-based; conditions: relative to inhibitory activity of 100 μM Nomifensine as 100%, read-out: inhibitory rate (%)
T1 construct: expressed in transfected cells
T1 sequence (Q01959 whole entry): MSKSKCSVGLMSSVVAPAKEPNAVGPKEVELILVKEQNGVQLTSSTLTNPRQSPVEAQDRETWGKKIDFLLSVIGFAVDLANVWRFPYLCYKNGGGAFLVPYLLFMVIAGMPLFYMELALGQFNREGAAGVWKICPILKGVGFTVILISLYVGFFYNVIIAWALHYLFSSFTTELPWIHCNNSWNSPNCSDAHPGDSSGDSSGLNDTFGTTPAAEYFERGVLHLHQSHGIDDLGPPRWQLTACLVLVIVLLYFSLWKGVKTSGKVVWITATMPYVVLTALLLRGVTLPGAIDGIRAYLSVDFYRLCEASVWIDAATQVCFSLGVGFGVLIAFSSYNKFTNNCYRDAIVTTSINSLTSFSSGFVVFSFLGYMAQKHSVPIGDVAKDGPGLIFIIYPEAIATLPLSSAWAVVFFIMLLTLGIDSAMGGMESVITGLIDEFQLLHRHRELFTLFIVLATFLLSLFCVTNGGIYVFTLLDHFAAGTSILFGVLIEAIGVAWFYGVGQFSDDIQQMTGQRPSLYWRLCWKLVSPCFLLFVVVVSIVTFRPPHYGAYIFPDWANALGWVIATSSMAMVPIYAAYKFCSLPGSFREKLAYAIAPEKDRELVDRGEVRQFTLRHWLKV
Text: (1) Construction of Human Dopamine Transporter Expression Plasmid
SRα promoter contained in pTB1411 described in JP-A-H5-076385 was cleaved with restriction enzyme HindIII (manufactured by TAKARA BIO INC.), blunt-ended, further cleaved with restriction enzyme EcoRI (manufactured by TAKARA BIO INC.), and fragmented. On the other hand, pCI vector was cleaved with restriction enzyme BglII (manufactured by TAKARA BIO INC.), blunt-ended with T4 DNA polymerase, and further cleaved with restriction enzyme EcoRI (manufactured by TAKARA BIO INC.). Into this site was inserted an SRα promoter fragment to give pCI-SRa. […]
(§1) One day before the assay, the cultured cells that reached almost confluent were rinsed with PBS (Invitrogen), detached with Trypsin/EDTA (Invitrogen), and collected by a centrifugal operation. The obtained cells were counted, and diluted to 3×10^5 cells per 1 mL medium, and the mixture was dispensed to a 96 well white plate (Corning) at 100 μL per well, and cultured overnight in a CO2 incubator.
On the day of the test, an assay buffer (126 mM NaCl, 4.95 mM KCl, 1.26 mM KH2PO4, 1.26 mM MgSO4, 10 mM HEPES, 2.32 mM CaCl2, 5.52 mM Glucose, 0.5% BSA) was prepared, the medium in the cell plate was removed and the assay buffer was added by 80 μL. […] The radioactivity was measured by TopCount (PerkinElmer). […]

[3] = target: human norepinephrine transporter (Homo sapiens, UniProt P23975); test: Inhibitory action on human norepinephrine transporter ([3H]-norepinephrine uptake in CHO cells); format: cell-based; conditions: relative to inhibitory activity of 10 μM DMI as 100%, read-out: inhibitory rate (%)
human norepinephrine transporter, sequence (P23975 whole entry): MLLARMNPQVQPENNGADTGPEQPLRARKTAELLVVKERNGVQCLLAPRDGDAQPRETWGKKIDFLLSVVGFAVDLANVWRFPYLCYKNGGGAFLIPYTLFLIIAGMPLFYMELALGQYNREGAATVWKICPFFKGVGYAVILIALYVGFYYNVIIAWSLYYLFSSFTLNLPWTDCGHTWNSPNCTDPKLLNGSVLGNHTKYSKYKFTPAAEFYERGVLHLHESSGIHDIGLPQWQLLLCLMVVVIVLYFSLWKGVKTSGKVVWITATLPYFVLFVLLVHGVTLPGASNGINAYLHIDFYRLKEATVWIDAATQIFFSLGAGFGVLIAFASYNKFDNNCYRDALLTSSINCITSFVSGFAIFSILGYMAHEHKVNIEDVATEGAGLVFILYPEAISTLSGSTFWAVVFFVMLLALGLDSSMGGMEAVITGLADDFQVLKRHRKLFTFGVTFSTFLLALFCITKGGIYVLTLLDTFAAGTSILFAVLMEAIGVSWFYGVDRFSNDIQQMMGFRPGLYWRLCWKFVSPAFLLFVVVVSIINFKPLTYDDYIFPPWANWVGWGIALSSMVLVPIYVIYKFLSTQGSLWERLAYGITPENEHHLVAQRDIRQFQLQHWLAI
Text: (§2) Human serotonin transporter cDNA was amplified from human brain cDNA library by PCR, and inserted into pCRII-TOPO vector (manufactured by Invitrogen). The base sequence was confirmed and modified, and subcloned to pcDNA3.1 vector (manufactured by Invitrogen), whereby a human serotonin transporter expression plasmid was constructed. Human norepinephrine transporter cDNA was purchased from Invitrogen, and the base sequence was confirm and modified, and subcloned to pcDNA3.1 vector, whereby a human norepinephrine transporter expression plasmid was constructed. […]
as §1, with “The” for “One day before the assay, the”
(§3) Then, an assay buffer (126 mM NaCl, 4.95 mM KCl, 1.26 mM KH2PO4, 1.26 mM MgSO4, 10 mM HEPES, 2.32 mM CaCl2, 5.52 mM Glucose, 0.5% BSA) was prepared, the medium in the cell plate was removed and the assay buffer was added by 80 μL. […] The radioactivity was measured by TopCount (PerkinElmer). […]

[4] = target: T2, human serotonin transporter (Homo sapiens, UniProt P31645); test: Inhibitory action on human serotonin transporter ([3H]-5-hydroxytryptamine uptake in CHO cells); format: cell-based; conditions: relative to inhibitory activity of 10 μM Paroxetine as 100%, read-out: inhibitory rate (%)
T2 construct: expressed in transfected cells
T2 sequence (P31645 whole entry): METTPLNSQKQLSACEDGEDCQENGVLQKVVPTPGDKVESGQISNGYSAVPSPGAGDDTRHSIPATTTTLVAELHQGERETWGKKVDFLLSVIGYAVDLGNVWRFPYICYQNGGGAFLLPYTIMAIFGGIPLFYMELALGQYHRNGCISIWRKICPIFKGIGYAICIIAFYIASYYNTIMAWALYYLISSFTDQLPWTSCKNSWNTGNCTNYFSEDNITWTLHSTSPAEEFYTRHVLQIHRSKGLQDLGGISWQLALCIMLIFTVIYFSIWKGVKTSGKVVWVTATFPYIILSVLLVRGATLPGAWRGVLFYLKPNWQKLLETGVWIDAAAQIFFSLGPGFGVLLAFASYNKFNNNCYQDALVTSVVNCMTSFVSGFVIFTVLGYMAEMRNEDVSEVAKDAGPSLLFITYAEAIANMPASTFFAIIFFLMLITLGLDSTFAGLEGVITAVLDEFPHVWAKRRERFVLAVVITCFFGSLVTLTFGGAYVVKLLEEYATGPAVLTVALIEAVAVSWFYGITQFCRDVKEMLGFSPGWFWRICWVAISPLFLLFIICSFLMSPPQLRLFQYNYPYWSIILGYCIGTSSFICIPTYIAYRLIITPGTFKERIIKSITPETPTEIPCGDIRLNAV
Text: (2) Preparation of Human Monoamine Expressing Cell
as §2
as §1, with “The” for “One day before the assay, the”, “medium,” for “medium, and”
as §3

Row | SMILES | urethral resistance increasing effect (LPP Post value minus Pre value) [1] | inhibition at 1 µM ([2]; compound 1 μM) [%] | inhibition at 10 µM ([2]; compound 10 μM) [%] | inhibition at 1 µM ([3]; compound 1 μM) [%] | inhibition at 10 µM ([3]; compound 10 μM) [%] | inhibition at 1 µM ([4]; compound 1 μM) [%] | inhibition at 10 µM ([4]; compound 10 μM, CHO cells expressing human serotonin transporter) [%]
1 | CC(=O)NC[C@H]1CNCCO[C@@H]1c1ccc(Cl)c(Cl)c1 (racemic) [Example 6, N-{[(6RS,7SR)-7-(3,4-dichlorophenyl)-1,4-oxazepan-6-yl]methyl}acetamide monohydrochloride] | dose-dependent and significant urethral resistance increasing effect |  |  |  |  |  | 
2 | OC[C@H]1NCCOC[C@@H]1c1ccc(Cl)c(Cl)c1 (racemic) [Example 14, [(5RS,6SR)-6-(3,4-dichlorophenyl)-1,4-oxazepan-5-yl]methanol monohydrochloride] |  | 87 | 99 | 98 | 100 | 31 | 79
